Source: patent US8765747B2, “Fused 2-aminothiazole compounds” (Dana-Farber Cancer Institute, Inc., priority 2009, dated 2014)

What was measured:
Assay type in all cases: cell-based, murine
32D-BCR-Abl [1] = test: Apoptosis assay; design: unit not given here; conditions: 1.0 μM, approximately 3 days of treatment
Description: (§1) Ba/F3.p210 cells were obtained by transfecting the IL-3-dependent marine hematopoietic Ba/F3 cell line with a pGD vector containing p210BCR-ABL (B2A2) cDNA (Daley and Baltimore, 1988; Sattler et al., 1996; Okuda et al., 1996). Murine hematopoietic 32D cells were transduced with retrovirus to express p210 Bcr-ABL (32D.p210 cells) (Matulonis et al., 1993); the 32D-T315I cell line was transfected by electroporation with the imatinib resistant BCR-ABL construct (pCI-neo Mammalian Expression Vector; Promega (#E1841) harboring the point mutation T315I (Weisberg et al., 2005). Ba/F3 cells were stably transfected by electroporation with imatinib-resistant BCR-ABL constructs (pCI-neo Mammalian Expression Vector; Promega (#E1841) harboring the point mutations T315I, F317L, F486S, and M351T; transfectants were selected for neomycin resistance and IL-3-independent growth (Weisberg et al., 2005). Ba/F3 cells were stably transfected by electroporation with BCR-ABL point mutants identified in a random mutagenesis screen for BCR-ABL point mutants conferring resistance to nilotinib: Q252H, E292K, Y253C, Y253H, E255K, and V289L (Ray et al., 2007). Ba/F3 cells were made to express Tel-PDGFRβ as described by Golub et al., 1994, and Carroll et al., 1996. Constructs of D842V-PDGFRα and V561D-PDGFRα cDNA cloned into pcDNA3.1 were stably transfected into Ba/F3 cells by electroporation, and cells were selected for neomycin resistance and IL3-independent growth as described by Weisberg et al., 2006.
(§2) All cell lines were cultured with 5% CO2 at 37° C. in RPMI (Mediatech, Inc., Herndon, Va.) with 10% fetal calf serum (FCS) and supplemented with 1% L-glutamine. Parental Ba/F3 cells were similarly cultured with 15% WEHI-conditioned medium as a source of IL-3. Transfected cell lines were cultured in media supplemented with 1 mg/ml G418.
(§3) Cell cycle analysis was performed using approximately 500,000 cells, which were centrifuged at 1500 rpm for 5 min, washed in PBS, and the pellet re-suspended in 500 μl of propidium iodide solution (50 μg/ml propidium iodide, 0.1% NP-40, 0.1% sodium citrate). The mixture was stored in the dark at 4° C. for a minimum of 15 min, and then analyzed by flow cytometry. Apoptosis of drug-treated cells was measured using the Annexin-V-Fluos Staining Kit (Boehringer Mannheim, Indianapolis).
(§4) Cells cultured in the presence or absence of drug were washed 1× with phosphate-buffered saline (PBS) and centrifuged for 5 min at 1500 rpm. Washed cell pellets were re-suspended in 100 μl of 20% Annexin-V-fluorescein labeling reagent and 20% propidium iodide (PI) in HEPES buffer. Cells were incubated for 15 min at room temperature, followed by dilution with 0.8 ml of HEPES buffer. Samples were then analyzed by flow cytometry. As controls, cells were incubated for 15 min with PI alone, Annexin-V-fluorescein labeling reagent alone, or HEPES buffer, and then diluted with HEPES buffer and analyzed by flow cytometry.

32D-BCR-Abl-T3151 [2] = test: Apoptosis assay; design: unit not given here; conditions: approximately 3 days of treatment
Description: as §1, §2, §3, §4

Ba/F3-PDGFRα-T674I = test: Cell cycle analysis; conditions: 24 hours of treatment
Procedure: as §2, §3

Ba/F3-PDGFRα-T674M = test: Cell cycle analysis; conditions: 24 hours of treatment
Procedure: as §2, §3

Ba/F3-kit-T6701 = test: Cell cycle analysis; conditions: 24 hours of treatment
Procedure: as §2, §3

32D-BCR-Abl [3] = test: Cell cycle analysis; conditions: 24 hours of treatment
Description: as §1, §2, §3

32D-BCR-Abl-T3151 [4] = test: Cell cycle analysis; conditions: 24 hours of treatment
Description: as §1, §2, §3

Ba/F3-TEL/PDGFRβ = test: Relative IC50 in PDGFR-expressing cell line; conditions: Mus musculus, 2.5-3 days, read-out: Relative IC50 range
Procedure: (§5) All compounds were initially dissolved in DMSO to make 10 mM stock solutions, and then were serially diluted to obtain final concentrations for in vitro experiments.
as §1, §2

Ba/F3-PDGFRα-D842V = test: Relative IC50 in PDGFR-expressing cell line; conditions: Mus musculus, 48 h, 2 day experiment, read-out: Relative IC50 range
Procedure: as §5, §1, §2

Ba/F3-PDGFRα-V561D = test: Relative IC50 in PDGFR-expressing cell line; conditions: Mus musculus, 48 h, 2 day experiment, read-out: Relative IC50 range
Procedure: as §5, §1, §2

Ba/F3-PDGFRβ-T681I = test: Relative IC50 in PDGFR-expressing cell line; conditions: Mus musculus, 2.5-3 days, read-out: Relative IC50 range
Procedure: as §5, §2

Ba/F3-Y253C = test: Relative IC50 in BCR-Abl-expressing cell line; conditions: Mus musculus, 2.5-3 days, read-out: Relative IC50 range
Procedure: as §5
as §1, with “Ba/F3 cells were made to express Tel-PDGFRβ as described by Golub et al., 1994, and Carroll et al., 1996. Constructs of D842V-PDGFRα and V561D-PDGFRα cDNA cloned into pcDNA3.1 were stably transfected into Ba/F3 cells by electroporation, and cells were selected for neomycin resistance and IL3-independent growth as described by Weisberg et al., 2006.” left out

IC50 (Ba/F3-TEL/PDGFRβ): < 100 nM | IC50 (Ba/F3-PDGFRα-D842V): 1000 nM | IC50 (Ba/F3-PDGFRα-V561D): > 1000 nM | IC50 (Ba/F3-PDGFRβ-T681I): > 1000 nM | IC50 (Ba/F3-Y253C): < 100 nM
Compound: CCN1CCN(Cc2ccc(NC(=O)c3cccc(-c4ccc5nc(NC(=O)C6CC6)sc5n4)c3)cc2C(F)(F)F)CC1 [Compound 2]
Apoptotic (32D-BCR-Abl [1]): 95.3 | Necrotic (32D-BCR-Abl [1]): 0.1 | Viable (32D-BCR-Abl [1]): 4.6 | Apoptotic (32D-BCR-Abl-T3151 [2]; 0.01 μM): 9.0 | Necrotic (32D-BCR-Abl-T3151 [2]; 0.01 μM): 0.1 | Viable (32D-BCR-Abl-T3151 [2]; 0.01 μM): 90.88 | Apoptotic (32D-BCR-Abl-T3151 [2]; 0.1 μM): 9.8 | Necrotic (32D-BCR-Abl-T3151 [2]; 0.1 μM): 0.3 | Viable (32D-BCR-Abl-T3151 [2]; 0.1 μM): 89.9 | Apoptotic (32D-BCR-Abl-T3151 [2]; 1.0 μM): 72.7 | Necrotic (32D-BCR-Abl-T3151 [2]; 1.0 μM): 0 | Viable (32D-BCR-Abl-T3151 [2]; 1.0 μM): 27.2 | % G0G1 (Ba/F3-PDGFRα-T674I; 0.01 μM): 57.30% | % G2M (Ba/F3-PDGFRα-T674I; 0.01 μM): 5.98% | % S (Ba/F3-PDGFRα-T674I; 0.01 μM): 36.72% | % G0G1 (Ba/F3-PDGFRα-T674I; 0.1 μM): 64.90% | % G2M (Ba/F3-PDGFRα-T674I; 0.1 μM): 5.82% | % S (Ba/F3-PDGFRα-T674I; 0.1 μM): 29.28% | % G0G1 (Ba/F3-PDGFRα-T674I; 1.0 μM): 77.55% | % G2M (Ba/F3-PDGFRα-T674I; 1.0 μM): 7.16% | % S (Ba/F3-PDGFRα-T674I; 1.0 μM): 15.29% | % G0G1 (Ba/F3-PDGFRα-T674M; 0.01 μM): 40.81% | % G2M (Ba/F3-PDGFRα-T674M; 0.01 μM): 7.41% | % S (Ba/F3-PDGFRα-T674M; 0.01 μM): 51.78% | % G0G1 (Ba/F3-PDGFRα-T674M; 0.1 μM): 72.37% | % G2M (Ba/F3-PDGFRα-T674M; 0.1 μM): 3.62% | % S (Ba/F3-PDGFRα-T674M; 0.1 μM): 24.01% | % G0G1 (Ba/F3-PDGFRα-T674M; 1.0 μM): 79.92% | % G2M (Ba/F3-PDGFRα-T674M; 1.0 μM): 2.46% | % S (Ba/F3-PDGFRα-T674M; 1.0 μM): 17.61% | % G0G1 (Ba/F3-kit-T6701; 0.01 μM): 35.2% | % G2M (Ba/F3-kit-T6701; 0.01 μM): 14.62% | % S (Ba/F3-kit-T6701; 0.01 μM): 50.19% | % G0G1 (Ba/F3-kit-T6701; 0.1 μM): 29.01% | % G2M (Ba/F3-kit-T6701; 0.1 μM): 16.54% | % S (Ba/F3-kit-T6701; 0.1 μM): 54.45% | % G0G1 (Ba/F3-kit-T6701; 1.0 μM): 52.57% | % G2M (Ba/F3-kit-T6701; 1.0 μM): 10.05% | % S (Ba/F3-kit-T6701; 1.0 μM): 37.38% | % G0G1 (32D-BCR-Abl [3]; 0.01 μM): 42.62% | % G2M (32D-BCR-Abl [3]; 0.01 μM): 9.56% | % S (32D-BCR-Abl [3]; 0.01 μM): 47.82% | % G0G1 (32D-BCR-Abl [3]; 0.1 μM): 76.52% | % G2M (32D-BCR-Abl [3]; 0.1 μM): 3.78% | % S (32D-BCR-Abl [3]; 0.1 μM): 19.71% | % G0G1 (32D-BCR-Abl [3]; 1.0 μM): 77.44% | % G2M (32D-BCR-Abl [3]; 1.0 μM): 9.07% | % S (32D-BCR-Abl [3]; 1.0 μM): 13.49% | % G0G1 (32D-BCR-Abl-T3151 [4]; 0.01 μM): 36.96% | % G2M (32D-BCR-Abl-T3151 [4]; 0.01 μM): 22.64% | % S (32D-BCR-Abl-T3151 [4]; 0.01 μM): 40.40% | % G0G1 (32D-BCR-Abl-T3151 [4]; 0.1 μM): 46.35% | % G2M (32D-BCR-Abl-T3151 [4]; 0.1 μM): 10.54% | % S (32D-BCR-Abl-T3151 [4]; 0.1 μM): 43.11% | % G0G1 (32D-BCR-Abl-T3151 [4]; 1.0 μM): 73.13% | % G2M (32D-BCR-Abl-T3151 [4]; 1.0 μM): 9.29% | % S (32D-BCR-Abl-T3151 [4]; 1.0 μM): 17.59%
